Laboratory results from ChEMBL document CHEMBL6121046, “Discovery of Novel Hydrazide-Based HDAC3 Inhibitors as Epigenetic Immunomodulators for Cancer Immunotherapy” (J Med Chem, 2025).
Each block holds one compound with its values, some of them ahead of it. The source made the active and inactive calls. The calls are words filed in the database; no cut-off is given here.

What was measured:
Histone deacetylase 3 = Histone deacetylase 3 (Homo sapiens, UniProt O15379); experiment: Inhibition of human recombinant HDAC3 pre-incubated with compounds for 10 mins measured followed by 60 mins of substrate addition
Histone deacetylase 3, sequence (O15379 whole entry): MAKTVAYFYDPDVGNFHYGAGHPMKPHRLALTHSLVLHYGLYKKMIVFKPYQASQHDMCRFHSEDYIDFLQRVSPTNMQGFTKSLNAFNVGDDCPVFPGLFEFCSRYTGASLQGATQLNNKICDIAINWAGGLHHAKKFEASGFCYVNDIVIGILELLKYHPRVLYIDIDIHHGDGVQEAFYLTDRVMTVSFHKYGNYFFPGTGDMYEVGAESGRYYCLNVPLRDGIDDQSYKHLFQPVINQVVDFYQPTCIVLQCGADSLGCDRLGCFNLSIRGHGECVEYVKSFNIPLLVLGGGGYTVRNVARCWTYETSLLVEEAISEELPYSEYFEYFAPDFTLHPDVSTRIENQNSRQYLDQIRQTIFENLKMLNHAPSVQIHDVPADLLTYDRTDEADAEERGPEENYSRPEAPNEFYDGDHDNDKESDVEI

[1] = target: T1, Protein deacetylase HDAC6 (Homo sapiens, UniProt Q9UBN7); experiment: Inhibition of human recombinant HDAC6 pre-incubated with compounds for 10 mins measured followed by 60 mins of substrate addition
T1 sequence (Q9UBN7 whole entry): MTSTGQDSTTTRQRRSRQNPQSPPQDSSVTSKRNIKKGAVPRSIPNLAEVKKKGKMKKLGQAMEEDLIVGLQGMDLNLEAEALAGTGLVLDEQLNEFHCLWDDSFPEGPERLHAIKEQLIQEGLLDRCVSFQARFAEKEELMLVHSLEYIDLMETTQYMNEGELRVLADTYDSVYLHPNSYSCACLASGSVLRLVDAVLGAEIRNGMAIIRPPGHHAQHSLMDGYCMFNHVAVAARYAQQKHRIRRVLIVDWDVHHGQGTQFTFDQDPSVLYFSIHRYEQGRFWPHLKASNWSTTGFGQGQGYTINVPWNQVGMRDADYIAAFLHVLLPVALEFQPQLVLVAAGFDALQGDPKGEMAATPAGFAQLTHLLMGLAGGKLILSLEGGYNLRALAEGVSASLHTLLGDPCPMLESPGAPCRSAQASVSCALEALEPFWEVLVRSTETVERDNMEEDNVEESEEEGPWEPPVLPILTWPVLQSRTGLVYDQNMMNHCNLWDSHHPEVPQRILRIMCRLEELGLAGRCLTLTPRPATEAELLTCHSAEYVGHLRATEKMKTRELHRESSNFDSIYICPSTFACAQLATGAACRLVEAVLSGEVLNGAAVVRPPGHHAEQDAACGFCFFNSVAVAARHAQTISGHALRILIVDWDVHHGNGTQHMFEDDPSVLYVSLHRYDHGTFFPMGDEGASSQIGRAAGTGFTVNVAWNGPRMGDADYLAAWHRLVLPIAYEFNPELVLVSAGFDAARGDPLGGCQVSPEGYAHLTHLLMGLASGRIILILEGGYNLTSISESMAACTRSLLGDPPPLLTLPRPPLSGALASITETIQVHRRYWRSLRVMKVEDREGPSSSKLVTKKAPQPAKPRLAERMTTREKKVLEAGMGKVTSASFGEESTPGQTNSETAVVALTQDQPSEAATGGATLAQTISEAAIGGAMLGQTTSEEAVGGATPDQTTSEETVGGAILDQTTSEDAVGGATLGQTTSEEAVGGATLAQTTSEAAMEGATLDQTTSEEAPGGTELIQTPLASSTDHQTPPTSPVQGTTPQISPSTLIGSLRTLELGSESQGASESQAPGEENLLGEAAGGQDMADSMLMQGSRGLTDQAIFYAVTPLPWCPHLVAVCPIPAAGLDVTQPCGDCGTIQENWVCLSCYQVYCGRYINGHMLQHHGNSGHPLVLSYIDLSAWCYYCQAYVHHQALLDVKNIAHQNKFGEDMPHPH

HeLa = experiment: Antiproliferative activity against human HeLa cells measured after 48 hrs incubation by MTT assay relative to control; assay type: functional, cell-based
MC-38 [2] = experiment: Antiproliferative activity against mouse MC38 cells measured after 48 hrs incubation by MTT assay relative to control; assay type: functional, cell-based; conditions: MC-38, 48 h
MC-38 [3] = experiment: Induction of apoptosis in mouse MC38 cells assessed as viable cells at 1 uM measured after 48 hrs by FITC/PI staining based flow cytometry (reference value: 82.07%); assay type: functional; conditions: read-out: Activity
MC-38 [4] = experiment: Induction of apoptosis in mouse MC38 cells assessed as late apoptotic cells at 1 uM measured after 48 hrs by FITC/PI staining based flow cytometry (reference value: 5.07%); assay type: functional
MC-38 [5] = experiment: Induction of apoptosis in mouse MC38 cells assessed as necrotic cells at 1 uM measured after 48 hrs by FITC/PI staining based flow cytometry (reference value: 0.56%); assay type: functional
MC-38 [6] = experiment: Induction of apoptosis in mouse MC38 cells assessed as viable cells at 2 uM measured after 48 hrs by FITC/PI staining based flow cytometry (reference value: 82.07%); assay type: functional; conditions: read-out: Activity
MC-38 [7] = experiment: Induction of apoptosis in mouse MC38 cells assessed as late apoptotic cells at 2 uM measured after 48 hrs by FITC/PI staining based flow cytometry (reference value: 5.07%); assay type: functional
MC-38 [8] = experiment: Induction of apoptosis in mouse MC38 cells assessed as necrotic cells at 2 uM measured after 48 hrs by FITC/PI staining based flow cytometry (reference value: 0.56%); assay type: functional
MC-38 [9] = experiment: Induction of apoptosis in mouse MC38 cells assessed as early apoptotic cells at 4 uM measured after 48 hrs by FITC/PI staining based flow cytometry (Rvb =12.27%); assay type: functional
MC-38 [10] = experiment: Induction of apoptosis in mouse MC38 cells assessed as late apoptotic cells at 4 uM measured after 48 hrs by FITC/PI staining based flow cytometry (reference value: 5.07%); assay type: functional
MC-38 [11] = experiment: Induction of apoptosis in mouse MC38 cells assessed as necrotic cells at 4 uM measured after 48 hrs by FITC/PI staining based flow cytometry (reference value: 0.56%); assay type: functional
MC-38 [12] = experiment: Induction of apoptosis in mouse MC38 cells assessed as viable cells at 8 uM measured after 48 hrs by FITC/PI staining based flow cytometry (reference value: 82.07%); assay type: functional; conditions: read-out: Activity
MC-38 [13] = experiment: Cell cycle arrest in mouse MC38 cells assessed as increase in accumulation of cells at G2/M phase measured after 48 hrs by flow cytometry; assay type: functional, cell-based; conditions: dose 1-8 µM
MC-38 [14] = experiment: Increase in acetylated H3 in mouse MC38 cells at 0.1 to 2 uM measured after 24 hrs incubation by Western blot analysis; assay type: functional, cell-based; conditions: dose 0.1-2 µM
MC-38 [15] = experiment: Effect on acetylated alpha-tubulin in mouse MC38 cells at 0.1 to 2 uM measured after 24 hrs incubation by Western blot analysis; assay type: functional, cell-based; conditions: dose 0.1-2 µM
B16-F10 (Mus musculus) = experiment: Antiproliferative activity against mouse B16-F10 cells measured after 48 hrs incubation by MTT assay relative to control; conditions: B16-F10, 48 h

Structure (SMILES): CCCNNC(=O)c1ccc(CNC(=O)c2cnc(-c3ccc4occc4c3)[nH]2)cc1
IC50 (Histone deacetylase 3): 53 nM
IC50 [1]: > 10000 nM
IC50 (HeLa): 2240 nM
IC50 (MC-38 [2]): 1800 nM
viability at 1 µM (MC-38 [3]): 49.3%
Activity (MC-38 [4]): 35%
Activity (MC-38 [5]): 3.72%
viability at 2 µM (MC-38 [6]): 37.9%
Activity (MC-38 [7]): 28.73%
Activity (MC-38 [8]): 2.15%
Activity (MC-38 [9]): 24.75%
Activity (MC-38 [10]): 54.95%
Activity (MC-38 [11]): 2.1%
viability at 8 µM (MC-38 [12]): 16.4%
Activity (MC-38 [13]): Active
Activity (MC-38 [14]): Active
Activity (MC-38 [15]): inactive
IC50 (B16-F10 (Mus musculus)): 2690 nM

IC50 (Histone deacetylase 3): 61 nM
IC50 [1]: 9680 nM
IC50 (HeLa): 1310 nM
IC50 (B16-F10 (Mus musculus)): 2470 nM
Structure (SMILES): CCCNNC(=O)c1ccc(CNC(=O)c2cnc(-c3cccc4ccccc34)[nH]2)cc1
IC50 (MC-38 [2]): 2300 nM
viability at 1 µM (MC-38 [3]): 50.7%
Activity (MC-38 [4]): 30.57%
Activity (MC-38 [5]): 2.9%
viability at 2 µM (MC-38 [6]): 31.3%
Activity (MC-38 [7]): 41.1%
Activity (MC-38 [8]): 9.01%
Activity (MC-38 [9]): 43.9%
Activity (MC-38 [10]): 26.83%
Activity (MC-38 [11]): 0.92%
viability at 8 µM (MC-38 [12]): 22.2%
Activity (MC-38 [13]): Active
Activity (MC-38 [14]): Active
Activity (MC-38 [15]): inactive
